“And” between values parts separate entries of the source, which are not always exact repeats. Identical values can stand only once. Toxic doses and inconclusive results are not listed.
Tested on: L1210 leukemia ip in BDF1 mice, survival T/C
Experiment: NCI In Vivo Anticancer Drug Screen. Data for tumor model L1210 Leukemia (intraperitoneal) in B6D2F1 (BDF1) mice
Conditions: endpoint: mean survival time, higher = longer survival
Procedure, shortened: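 Tumor was transplanted into mice, which were then dosed with test compound or vehicle alone. Survival was recorded for each group, and the treated figure was expressed relative to the control figure.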

[1] = dose: 50.0 mg/kg/injection, schedule: Q01DX001 (ip), vehicle: saline
[2] = dose: 100.0 mg/kg/injection, schedule: Q04DX003 (ip), vehicle: saline
[3] = dose: 200.0 mg/kg/injection, schedule: Q01DX001 (ip), vehicle: saline
[4] = dose: 400.0 mg/kg/injection, schedule: Q01DX001 (ip), vehicle: saline
[5] = dose: 100.0 mg/kg/injection, schedule: Q01DX001 (ip), vehicle: Klucel (hydroxypropylcellulose) (HPC)
[6] = dose: 200.0 mg/kg/injection, schedule: Q01DX001 (ip), vehicle: Klucel (hydroxypropylcellulose) (HPC)
[7] = dose: 100.0 mg/kg/injection, schedule: Q04DX003 (ip), vehicle: saline with Tween-80
[8] = dose: 200.0 mg/kg/injection, schedule: Q04DX003 (ip), vehicle: saline with Tween-80
[9] = dose: 400.0 mg/kg/injection, schedule: Q04DX003 (ip), vehicle: saline with Tween-80
[10] = dose: 400.0 mg/kg/injection, schedule: Q04DX002 (ip), vehicle: saline with Tween-80
[11] = dose: 100.0 mg/kg/injection, schedule: Q04DX003 (ip), vehicle: Klucel (hydroxypropylcellulose) (HPC)
[12] = dose: 200.0 mg/kg/injection, schedule: Q04DX003 (ip), vehicle: Klucel (hydroxypropylcellulose) (HPC)
[13] = dose: 400.0 mg/kg/injection, schedule: Q04DX003 (ip), vehicle: Klucel (hydroxypropylcellulose) (HPC)

## CS(=O)(=O)OCCC(=O)N1CCN(C(=O)CCOS(C)(=O)=O)CC1
dose: 6.3 mg/kg/injection, schedule: Q01DX001 (ip), vehicle: carboxymethylcellulose (CMC)
  T/C: 100 % of control and 105 % of control
dose: 9.7 mg/kg/injection, schedule: Q01DX Z (ip), vehicle: methylcellulose (MC)
  T/C: 106 % of control
dose: 12.5 mg/kg/injection, schedule: Q01DX001 (ip), vehicle: carboxymethylcellulose (CMC)
  T/C: 103 % of control and 122 % of control
dose: 14.7 mg/kg/injection, schedule: Q01DX Z (ip), vehicle: methylcellulose (MC)
  T/C: 104 % of control
dose: 16.0 mg/kg/injection, schedule: Q01DX002 (ip), vehicle: saline
  T/C: 115 % of control
dose: 22.0 mg/kg/injection, schedule: Q01DX Z (ip), vehicle: methylcellulose (MC)
  T/C: 110 % of control and 112 % of control
dose: 25.0 mg/kg/injection, schedule: Q01DX001 (ip), vehicle: carboxymethylcellulose (CMC)
  T/C: 112 % of control and 115 % of control
dose: 25.0 mg/kg/injection, schedule: Q04DX003 (ip), vehicle: saline
  T/C: 108 % of control
dose: 31.0 mg/kg/injection, schedule: Q01DX002 (ip), vehicle: saline
  T/C: 105 % of control and 115 % of control
dose: 31.25 mg/kg/injection, schedule: Q01DX Z (ip), vehicle: methylcellulose (MC)
  T/C: 156 % of control
dose: 33.5 mg/kg/injection, schedule: Q01DX Z (ip), vehicle: methylcellulose (MC)
  T/C: 150 % of control
[1]
  T/C: 121 % of control
dose: 50.0 mg/kg/injection, schedule: Q04DX003 (ip), vehicle: saline
  T/C: 123 % of control
dose: 62.5 mg/kg/injection, schedule: Q01DX Z (ip), vehicle: methylcellulose (MC)
  T/C: 176 % of control
dose: 75.0 mg/kg/injection, schedule: Q01DX Z (ip), vehicle: methylcellulose (MC)
  T/C: 162 % of control
dose: 76.0 mg/kg/injection, schedule: Q01DX Z (ip), vehicle: methylcellulose (MC)
  T/C: 218 % of control
[2]
  T/C: 153 % of control and 195 % of control
dose: 170.0 mg/kg/injection, schedule: Q01DX Z (ip), vehicle: methylcellulose (MC)
  T/C: 103 % of control and 115 % of control
[3]
  T/C: 167 % of control
dose: 225.0 mg/kg/injection, schedule: Q01DX Z (ip), vehicle: methylcellulose (MC)
  T/C: 93 % of control
dose: 250.0 mg/kg/injection, schedule: Q01DX002 (ip), vehicle: saline
  T/C: 205 % of control and 240 % of control
[4]
  T/C: 213 % of control

## COc1ccc(/C=C2/CCOC2=O)cc1
dose: 12.5 mg/kg/injection, schedule: Q04DX002 (ip), vehicle: Klucel (hydroxypropylcellulose) (HPC)
  T/C: 99 % of control

## O=C(C(CO)C(CO)C(=O)N1Cc2cc3ccccc3nc2C1)N1Cc2cc3ccccc3nc2C1 (stereo not drawn)
[5]
  T/C: 103 % of control
[6]
  T/C: 95 % of control
dose: 400.0 mg/kg/injection, schedule: Q01DX001 (ip), vehicle: Klucel (hydroxypropylcellulose) (HPC)
  T/C: 92 % of control

## CCC(O)C[As](=O)(O)c1cccc(Cl)c1 (stereo not drawn)
dose: 0.78 mg/kg/injection, schedule: Q04DX002 (ip), vehicle: saline
  T/C: 106 % of control
dose: 0.78 mg/kg/injection, schedule: Q04DX003 (ip), vehicle: saline with Tween-80
  T/C: 92 % of control
dose: 1.56 mg/kg/injection, schedule: Q01DX001 (ip), vehicle: saline
  T/C: 96 % of control
dose: 1.56 mg/kg/injection, schedule: Q04DX002 (ip), vehicle: saline
  T/C: 101 % of control
dose: 1.56 mg/kg/injection, schedule: Q04DX003 (ip), vehicle: saline with Tween-80
  T/C: 94 % of control
dose: 3.13 mg/kg/injection, schedule: Q01DX001 (ip), vehicle: saline
  T/C: 100 % of control
dose: 3.13 mg/kg/injection, schedule: Q04DX002 (ip), vehicle: saline
  T/C: 105 % of control
dose: 3.13 mg/kg/injection, schedule: Q04DX003 (ip), vehicle: saline with Tween-80
  T/C: 95 % of control
dose: 6.25 mg/kg/injection, schedule: Q01DX001 (ip), vehicle: saline with Tween-80
  T/C: 120 % of control
dose: 6.25 mg/kg/injection, schedule: Q01DX001 (ip), vehicle: saline
  T/C: 91 % of control
dose: 6.25 mg/kg/injection, schedule: Q04DX002 (ip), vehicle: saline
  T/C: 97 % of control
dose: 6.25 mg/kg/injection, schedule: Q04DX003 (ip), vehicle: saline with Tween-80
  T/C: 92 % of control

## COc1cc2ccc(/C(C)=N/OC(C)=O)cc2cc1OC
[7]
  T/C: 100 % of control
[8]
  T/C: 100 % of control
[9]
  T/C: 106 % of control

## N#CC1(C#N)C2C=CC(C3CC=CC32)C1(C#N)C#N (stereo not drawn)
dose: 12.5 mg/kg/injection, schedule: Q01DX009 (ip), vehicle: saline with Tween-80
  T/C: 101 % of control
dose: 25.0 mg/kg/injection, schedule: Q01DX009 (ip), vehicle: saline with Tween-80
  T/C: 97 % of control
dose: 25.0 mg/kg/injection, schedule: Q04DX003 (ip), vehicle: saline with Tween-80
  T/C: 108 % of control
dose: 50.0 mg/kg/injection, schedule: Q04DX003 (ip), vehicle: saline with Tween-80
  T/C: 105 % of control
[7]
  T/C: 93 % of control

## Fc1c(F)c(F)c(Oc2nc(-c3ccccc3)nc(-c3ccccc3)n2)c(F)c1F
dose: 25.6 mg/kg/injection, schedule: Q04DX002 (ip), vehicle: saline with Tween-80
  T/C: 92 % of control
dose: 64.0 mg/kg/injection, schedule: Q04DX002 (ip), vehicle: saline with Tween-80
  T/C: 106 % of control
dose: 160.0 mg/kg/injection, schedule: Q04DX002 (ip), vehicle: saline with Tween-80
  T/C: 100 % of control
[10]
  T/C: 95 % of control

## O=C(/C=C\c1ccc(Cl)cc1)OCCCCOC(=O)/C=C/c1ccc(Cl)cc1
[1]
  T/C: 96 % of control
dose: 100.0 mg/kg/injection, schedule: Q01DX001 (ip), vehicle: saline
  T/C: 93 % of control
[3]
  T/C: 93 % of control
[4]
  T/C: 93 % of control

## O=C1c2ccccc2C(=O)N1OCc1ccc(CON2C(=O)c3ccccc3C2=O)cc1
[2]
  T/C: 101 % of control
dose: 200.0 mg/kg/injection, schedule: Q04DX003 (ip), vehicle: saline
  T/C: 95 % of control
dose: 400.0 mg/kg/injection, schedule: Q04DX003 (ip), vehicle: saline
  T/C: 95 % of control

## COc1ccc(F)cc1CC(=O)O
dose: 100.0 mg/kg/injection, schedule: Q04DX002 (ip), vehicle: Klucel (hydroxypropylcellulose) (HPC)
  T/C: 102 % of control and 105 % of control
dose: 200.0 mg/kg/injection, schedule: Q04DX002 (ip), vehicle: Klucel (hydroxypropylcellulose) (HPC)
  T/C: 98 % of control and 105 % of control
dose: 400.0 mg/kg/injection, schedule: Q04DX002 (ip), vehicle: Klucel (hydroxypropylcellulose) (HPC)
  T/C: 91 % of control and 96 % of control

## COC(=O)C1C(C(=O)OC)C1(c1ccccc1)c1ccccc1 (stereo not drawn)
dose: 100.0 mg/kg/injection, schedule: Q01DX001 (ip), vehicle: steriod suspending solution
  T/C: 95 % of control
dose: 200.0 mg/kg/injection, schedule: Q01DX001 (ip), vehicle: steriod suspending solution
  T/C: 112 % of control
dose: 400.0 mg/kg/injection, schedule: Q01DX001 (ip), vehicle: steriod suspending solution
  T/C: 95 % of control

## Cc1ccc(S(=O)(=O)OCC2OCC(O)C(O)C2O)cc1 (stereo not drawn)
[7]
  T/C: 86 % of control
[8]
  T/C: 86 % of control
[9]
  T/C: 86 % of control

## O=C(O)c1ccc2[nH]c(=O)c(=O)[nH]c2c1
[11]
  T/C: 96 % of control
[12]
  T/C: 101 % of control
[13]
  T/C: 102 % of control

## O=C(CCCCC(=O)NO)NO
dose: 100.0 mg/kg/injection, schedule: Q04DX002 (ip), vehicle: saline with Tween-80
  T/C: 110 % of control
dose: 100.0 mg/kg/injection, schedule: Q04DX002 (ip), vehicle: saline
  T/C: 103 % of control
dose: 200.0 mg/kg/injection, schedule: Q04DX002 (ip), vehicle: saline with Tween-80
  T/C: 110 % of control
dose: 200.0 mg/kg/injection, schedule: Q04DX002 (ip), vehicle: saline
  T/C: 90 % of control
[10]
  T/C: 107 % of control
dose: 400.0 mg/kg/injection, schedule: Q04DX002 (ip), vehicle: saline
  T/C: 107 % of control

## c1ccc([C]([Hg][C](=C(c2ccccc2)c2ccccc2)c2ccccc2)=C(c2ccccc2)c2ccccc2)cc1
dose: 50.0 mg/kg/injection, schedule: Q01DX001 (ip), vehicle: Klucel (hydroxypropylcellulose) (HPC)
  T/C: 95 % of control
[5]
  T/C: 88 % of control
[6]
  T/C: 90 % of control

## CC1(C)OC2COC(c3[nH]nc(C(N)=O)c3I)C2O1 (stereo not drawn)
dose: 100.0 mg/kg/injection, schedule: Q01DX005 (ip), vehicle: saline
  T/C: 93 % of control
dose: 200.0 mg/kg/injection, schedule: Q01DX005 (ip), vehicle: saline
  T/C: 95 % of control

## Cc1ccc(NC(=O)C(Cl)(Cl)Cl)cc1C
[11]
  T/C: 93 % of control
[12]
  T/C: 101 % of control
[13]
  T/C: 90 % of control

From PubChem BioAssay AID248 (DTP/NCI, 2004)
